From article PMC11513893, “Discovery of Oral Degraders of the ROS1 Fusion Protein with Potent Activity against Secondary Resistance Mutations” (Journal of Medicinal Chemistry, 2024)
Where two headings read alike, the source gives them in different places.

Assays:
[1] = system: Ba/F3 CD74-ROS1 non mutant; assay: Antiproliferation assay (Alamar Blue, 72 h); format: cell-based, mouse; conditions: Mus musculus, BaF3, 72 h, Ba/F3 cells, cell growth inhibition
Ba/F3 ROS1-G2032R = assay: Antiproliferation assay; format: cell-based, mouse; conditions: Mus musculus, BaF3; Ba/F3 cells, cell growth inhibition, 72 h
ROS1 = ROS1 degradation in Ba/F3 cells (WES immunoblotting); format: cell-based; conditions: for DC50: concentration needed to reduce ROS1 protein by 50%, Ba/F3 cells; for Dmax (%) (ROS1): maximal degradation of ROS1 in Ba/F3 cells
How it was run: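 ROS1 and phospho-ROS1 (Tyr2274/2334) in Ba/F3 lysates quantified by capillary immunoassay (WES) with chemiluminescent detection, duplicate experiments. Levels expressed as AUC of the chemiluminescence peak.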

Log P measurement = format: physicochemical
From the text: An important physicochemical property for a PROTAC molecule is its lipophilicity that largely dictates its pharmaceutical performance such as absorption, permeability, and distribution.

[2] = Metabolic stability in rat microsomes; format: in vitro ADME; conditions: rat, pooled rat microsomes, pH 7.4, 250 nM compound, NADPH, 37 °C
Experimental: (§1) Pooled human and rat microsomes were prepared and stored at −80 °C prior to use. A master-mix containing microsome, phosphate buffer, and test compound (9 series) solution was made as follows: (1) 3 μL of microsome (20 mg/mL) was diluted with mixed 30 μL of potassium phosphate buffer (pH 7.4; 10×) and 246 μL of water; (2) 3 μL of 25 μM drug solution was added to the microsome; (3) the master solution was prewarmed at 37 °C for 5 min. NADPH solution A (15 μL) and NADPH solution B (3 μL) from Promega were added to the above-mentioned master solution to initiate the reaction. The final concentration of 9 compounds in the reaction system was 250 nM. An aliquot of 20 μL was pipetted from the reaction solution and stopped by the addition of 180 μL of cold MeCN containing 25 ng of Tamoxifen-(N,N-dimethyl-13C2)-15N as an internal standard at the designated time points (0, 5, 15, 30, 45, and 60 min). The incubation solution was vortexed-mixed (800 rpm/10 min) and centrifuged at 3500 rpm for 10 min to precipitate proteins. The supernatant was collected and used for the LC/MS/MS analysis. The natural log of the remaining percentage of the test compound was plotted against time and the gradient of the line was determined.

[3] = Metabolic stability in human microsomes; format: in vitro ADME; conditions: human, pooled human microsomes, pH 7.4, 250 nM compound, NADPH, 37 °C
Experimental: as §1

[4] = Pharmacokinetics study in Sprague–Dawley rats; format: in vivo; conditions: Sprague-Dawley [Crl: CD (SD)], plasma, rat
Experimental: Four to 6 weeks old Sprague–Dawley rats [Crl: CD (SD)] (SPF/VAF) were purchased from Charles River (Wilmington MA). Animals were quarantined/acclimated for 2–6 weeks prior to dose initiation. Sprague–Dawley rats were given oral administration of test compounds (20% PG, 5% Solutol, and 75% of 20% HP-β-CD in water) at different dose levels. After treatment with the compounds, whole blood was collected from each study animal by puncture of the tail vein (0.4 mL of whole blood from rats) into tubes containing K2EDTA at each time point. The plasma samples were divided into 2 aliquots (approximately equal in volume) and stored frozen at −75 ± 15 °C within 2 h of the collection until analysis.
The stock solution of the test compound (0.01 M) in DMSO was prepared and stored at −20 ± 5 °C. The desired serial concentrations of working reference analyte solutions were achieved by diluting a stock analyte solution with 50% acetonitrile (0.1% formic acid) in water solution. The bioanalytical LC–MS/MS method was developed for quantitative determination of each test compound in Sprague–Dawley rat plasma with acceptable selectivity, sensitivity, calibration curve, precision, and accuracy. The analytical method is applicable for the determination of test compounds in Sprague–Dawley rat plasma with a lower limit of quantification of 10.0 ng/mL and an upper limit of quantification of 5000 ng/mL. Five microliters of diluted supernatant was injected into the LC–MS/MS system (TSQ Quantis) and a SynergiTM 4 μm Fusion-RP 80 Å (50 × 2 mm) column using gradient elution and a Triple Quad mass spectrometer) for quantitative analysis. The mobile phases used were 0.1% formic acid in deionized water and 0.1% formic acid in acetonitrile. The pharmacokinetic parameters T1/2 (the biological half-life), Cmax (maximal concentration), Tmax (time at which Cmax is observed), and AUC (area under the plasma concentration–time curve) were calculated from the plasma concentration versus time data using WinNonlin (PhoenixTM, version 8.1, Mountain View, CA, USA).

| IC50 [1] | IC50 (Ba/F3 ROS1-G2032R) | DC50 (ROS1) | logP (Log P measurement) | microsomal CLint at 1 h, 0.25 µM [2] | half-life at 1 h, 0.25 µM ([2]; read-out: metabolic stability in rat microsomes T1/2) | microsomal CLint at 1 h, 0.25 µM [3] | half-life at 1 h, 0.25 µM ([3]; read-out: metabolic stability in human microsomes T1/2) | AUC ([4]; 2 mg/kg iv, read-out: AUC (iv)) | Cmax at 24 h ([4]; 10 mg/kg po) | half-life ([4]; 10 mg/kg po) | bioavailability ([4]; 10 mg/kg po vs 2 mg/kg iv) | AUC ([4]; 10 mg/kg po, read-out: AUC (po)) | Tmax ([4]; 10 mg/kg po, read-out: Tmax) | Structure (SMILES) | Dmax (%) (ROS1) (ROS1) |
| --- | --- | --- | --- | --- | --- | --- | --- | --- | --- | --- | --- | --- | --- | --- | --- |
| 19 ± 8 nM | 236 ± 28 nM | 22 nM | 2.35 | 77 µL/min/mg | 0.3 h | 87 µL/min/mg | 0.663 h | 29400 ng·h/mL | 2340 ng/mL | 6.81 h | 21.6% | 31700 ng·h/mL | 3 h | COc1cc(N2CCN(CC3CCN(c4ccc5c(c4)C(=O)N(C4CCC(=O)NC4=O)C5=O)CC3)CC2)ccc1Nc1ncc(Cl)c(Nc2ccccc2P(C)(C)=O)n1 (stereo not shown) [9c, 5-(4-((4-(4-((5-Chloro-4-((2-(dimethylphosphoryl)phenyl)amino)pyrimidin-2-yl)amino)-3-methoxyphenyl)piperazin-1-yl)methyl)piperidin-1-yl)-2-(2,6-dioxopiperidin-3-yl)isoindoline-1,3-dione] | 95% |
| 15.3 ± 4.5 nM | 158 ± 81 nM | 20 nM | – | – | – | – | – | – | – | – | – | – | – | COc1cc(N2CCC(N3CCN(CC4CN(c5ccc6c(c5)CN(C5CCC(=O)NC5=O)C6=O)C4)CC3)CC2)ccc1Nc1ncc(Cl)c(Nc2ccccc2P(C)(C)=O)n1 (stereo not shown) [9p, 3-(5-(3-((4-(1-(4-((5-Chloro-4-((2-(dimethylphosphoryl)phenyl)amino)pyrimidin-2-yl)amino)-3-methoxyphenyl)piperidin-4-yl)piperazin-1-yl)methyl)azetidin-1-yl)-1-oxoisoindolin-2-yl)piperidine-2,6-dione] | 94% |
| 102 ± 24 nM | > 10000 nM | 145 nM | – | – | – | – | – | – | – | – | – | – | – | COc1cc(N2CCC(N3CCN(CC4CCN(c5ccc(NC6CCC(=O)NC6=O)cc5)CC4)CC3)CC2)ccc1Nc1ncc(Cl)c(Nc2ccccc2P(C)(C)=O)n1 (stereo not shown) [9q, 3-((4-(4-((4-(1-(4-((5-Chloro-4-((2-(dimethylphosphoryl)phenyl)amino)pyrimidin-2-yl)amino)-3-methoxyphenyl)piperidin-4-yl)piperazin-1-yl)methyl)piperidin-1-yl)phenyl)amino)piperidine-2,6-dione] | 33% |
| 120 ± 39 nM | > 10000 nM | 123 nM | – | – | – | – | – | – | – | – | – | – | – | COc1cc(N2CCC(N3CCN(CC4CCN(c5ccc(C(=O)NC6CCC(=O)NC6=O)cc5)CC4)CC3)CC2)ccc1Nc1ncc(Cl)c(Nc2ccccc2P(C)(C)=O)n1 (stereo not shown) [9r, 4-(4-((4-(1-(4-((5-Chloro-4-((2-(dimethylphosphoryl)phenyl)amino)pyrimidin-2-yl)amino)-3-methoxyphenyl)piperidin-4-yl)piperazin-1-yl)methyl)piperidin-1-yl)-N-(2,6-dioxopiperidin-3-yl)benzamide] | 28% |
| 75 ± 9 nM | > 10000 nM | 84 nM | – | – | – | – | – | – | – | – | – | – | – | COc1cc(N2CCC(N3CCN(C(=O)CN4CCN(c5ccc(NC6CCC(=O)NC6=O)cc5)CC4)CC3)CC2)ccc1Nc1ncc(Cl)c(Nc2ccccc2P(C)(C)=O)n1 (stereo not shown) [9s, 3-((4-(4-(2-(4-(1-(4-((5-Chloro-4-((2-(dimethylphosphoryl)phenyl)amino)pyrimidin-2-yl)amino)-3-methoxyphenyl)piperidin-4-yl)piperazin-1-yl)-2-oxoethyl)piperazin-1-yl)phenyl)amino)piperidine-2,6-dione] | 40% |
| 61 ± 3 nM | > 10000 nM | 56 nM | – | – | – | – | – | – | – | – | – | – | – | COc1cc(N2CCC(N3CCN(CCC4CCN(c5ccc(NC6CCC(=O)NC6=O)cc5)CC4)CC3)CC2)ccc1Nc1ncc(Cl)c(Nc2ccccc2P(C)(C)=O)n1 (stereo not shown) [9t, 3-((4-(4-(2-(4-(1-(4-((5-Chloro-4-((2-(dimethylphosphoryl)phenyl)amino)pyrimidin-2-yl)amino)-3-methoxyphenyl)piperidin-4-yl)piperazin-1-yl)ethyl)piperidin-1-yl)phenyl)amino)piperidine-2,6-dione] | 45% |
| 82 ± 9 nM | > 10000 nM | 101 nM | – | – | – | – | – | – | – | – | – | – | – | COc1cc(N2CCC(N3CCN(C(=O)CC4CCN(c5ccc(NC6CCC(=O)NC6=O)cc5)CC4)CC3)CC2)ccc1Nc1ncc(Cl)c(Nc2ccccc2P(C)(C)=O)n1 (stereo not shown) [9u, 3-((4-(4-(2-(4-(1-(4-((5-Chloro-4-((2-(dimethylphosphoryl)phenyl)amino)pyrimidin-2-yl)amino)-3-methoxyphenyl)piperidin-4-yl)piperazin-1-yl)-2-oxoethyl)piperidin-1-yl)phenyl)amino)piperidine-2,6-dione] | 37% |
| 63 ± 24 nM | > 10000 nM | 76 nM | – | – | – | – | – | – | – | – | – | – | – | COc1cc(N2CCC(N3CCN(C(=O)C4CCN(c5ccc(NC6CCC(=O)NC6=O)cc5)CC4)CC3)CC2)ccc1Nc1ncc(Cl)c(Nc2ccccc2P(C)(C)=O)n1 (stereo not shown) [9v, 3-((4-(4-(4-(1-(4-((5-Chloro-4-((2-(dimethylphosphoryl)phenyl)amino)pyrimidin-2-yl)amino)-3-methoxyphenyl)piperidin-4-yl)piperazine-1-carbonyl)piperidin-1-yl)phenyl)amino)piperidine-2,6-dione] | 42% |
